Literature values as cited in the PKSmart pharmacokinetics tables (Seal et al. 2025).

Assay: Lombardo, Berellini, Obach 2018, Drug Metab Dispos 46:1466, doi 10.1124/dmd.118.082966
Conditions: human; for MRT / Vd / clearance / half-life: in vivo, iv; for fraction unbound: plasma

Row | SMILES | MRT [h] | Vd [L/kg] | clearance [mL/min/kg] | half-life [h] | fraction unbound
1 | CC[C@H](CC[C@@H](C)[C@H]1CC[C@H]2[C@@H]3CC=C4C[C@@H](O)CC[C@]4(C)[C@H]3CC[C@]12C)C(C)C | 250 | 0.3 | 0.02 | 372 | –
2 | C[C@H](Cc1cc2c(c(C(N)=O)c1)N(CCCO)CC2)NCCOc1ccccc1OCC(F)(F)F | – | – | 2.8 | 3.6 | 0.05
3 | NC[C@H]1O[C@H](O[C@H]2[C@H](O)[C@@H](O[C@H]3O[C@H](CO)[C@@H](O)[C@H](N)[C@H]3O)[C@H](N)C[C@@H]2N)[C@H](O)[C@@H](O)[C@@H]1O | 3.1 | 0.26 | 1.4 | 2.1 | –
4 | CCCCC[C@@H](O)CC[C@H]1[C@@H]2Cc3cccc(OCC(=O)O)c3C[C@@H]2C[C@@H]1O | 0.36 | 0.23 | 10.7 | 0.82 | 0.09
5 | CC1(C)C(\C=C/C=C/C=C/C=C2\N(CCCCS(=O)(=O)O)c3ccc4ccccc4c3C2(C)C)=[N+](CCCCS(=O)(=O)[O-])c2ccc3ccccc3c21 | 0.086 | 0.035 | 6.8 | 0.065 | 0.05
6 | O=C(c1ccc(F)c(F)c1Nc1ccc(I)cc1F)N1CC(O)([C@@H]2CCCCN2)C1 | 96.6 | 15.4 | 2.8 | 68.8 | 0.05
7 | CC(CCc1ccc2c(c1)OCO2)NCC(O)c1ccc(O)c(C(N)=O)c1 (configuration not stated) | 8.2 | 7.9 | 16 | 11 | –
8 | COc1ccccc1Oc1c(NS(=O)(=O)c2ccc(C)cn2)nc(-c2ccncc2)nc1OC | 8.8 | 0.27 | 0.52 | 7.2 | –
9 | Cc1c(OCC(F)(F)F)ccnc1C[S+](O)c1nc2ccccc2[n-]1 (configuration not stated) | 1.1 | 0.28 | 4.4 | 1 | –
10 | CNC[C@@H]1CC[C@@H](N)[C@@H](O[C@@H]2[C@H](O)[C@@H](O[C@H]3OC[C@](C)(O)[C@H](NC)[C@H]3O)[C@H](N)C[C@@H]2N)O1 | 2.4 | 0.15 | 1.1 | 2.1 | –
11 | CC(=O)Nc1c(I)c(C(=O)O)c(I)c(N(C)C(C)=O)c1I | 1 | 0.17 | 2.7 | 1.3 | 1
12 | CON=C(C(=O)NC1C(=O)N2C(C(=O)[O-])=C(C[N+]34CCC(C(N)=O)(CC3)CC4)CSC12)c1nsc(N)n1 (configuration not stated) | 2.6 | 0.27 | 1.7 | 2.2 | –
13 | CCN(CC)CCNc1ccc(CNC=O)c2sc3ccc(OC)cc3c(=O)c12 | 5.4 | 1.01 | 3.1 | 6.19 | –
14 | CCC/N=C1\S/C(=C\c2ccc(OC[C@H](O)CO)c(Cl)c2)C(=O)N1c1ccccc1C | 42.6 | 2.28 | 0.9 | 32.9 | –
15 | O=P(NCCCl)(NCCCl)O[C@@H]1O[C@H](CO)[C@@H](O)[C@H](O)[C@H]1O | 2.49 | 0.24 | 1.6 | 2.37 | 0.71
16 | Cc1cnc(C(=O)NCCc2ccc(S(=O)(=O)NC(=O)NC3CCCCC3)cc2)cn1 | 4.8 | – | – | – | –

Row | SMILES | MRT [h] | Vd [L/kg] | clearance [mL/min/kg] | half-life [h] | fraction unbound
17 | CON=C(C(=O)NC1C(=O)N2C(C(=O)[O-])=C(C[n+]3ccc(-c4cnco4)cc3)CS[C@H]12)c1csc(N)n1 (some centres not stated) | 2.64 | 0.22 | 1.76 | 1.78 | –
18 | CCCCCc1cc(O)c2c(c1)OC(C)(C)[C@@H]1CCC(C(=O)O)=C[C@@H]21 | 18.1 | 1.28 | 1.2 | 17.6 | –
19 | Cc1ccc2c(-c3ccccc3)nc(=O)n(C(C)C)c2c1 | 0.92 | 0.52 | 9.45 | 1.27 | 0.02
20 | CN[C@H]1CN(c2ccc3c(=O)c(C(=O)O)cn(-c4nccs4)c3n2)C[C@@H]1OC | 30.6 | 1.46 | 0.79 | 25.5 | –
21 | COc1cc(N)cn[n+]1-c1ccccc1 | 13 | 4 | 5.1 | 14.1 | –
22 | C[C@H]1[C@H](C)CC[C@]2(C(=O)O)CC[C@@]3(C)C(=CC[C@@H]4[C@@]5(C)CC[C@H](O)C(C)(C)[C@@H]5CC[C@]43C)[C@H]12 | 2.34 | – | 3.87 | 4.8 | –
23 | CC(=O)N(CC(O)CO)c1c(I)c(C(=O)NCC(O)CO)c(I)c(C(=O)NCC(O)CO)c1I (configuration not stated) | 1.3 | 0.16 | 2 | 1.5 | 1
24 | C[N+]1(CC2CC2)CC[C@]23c4c5ccc([O-])c4OC2C(=O)CC[C@@]3(O)[C@H]1C5 (some centres not stated) | – | – | – | – | 0.87
25 | C[C@H]1O[C@@H](O[C@H]2[C@@H](O)C[C@H](O[C@H]3[C@@H](O)C[C@H](O[C@H]4CC[C@@]5(C)[C@H](CC[C@@H]6[C@@H]5CC[C@]5(C)[C@@H](C7=CC(=O)OC7)CC[C@]65O)C4)O[C@@H]3C)O[C@@H]2C)C[C@H](O)[C@@H]1O | 170 | 0.44 | 0.043 | – | 0.066
26 | CCC[C@@H]1CC(C(=O)N[C@@H]([C@H]2O[C@H](SC)[C@H](O)[C@@H](O)[C@H]2O)[C@@H](C)O)N(C)C1 (some centres not stated) | 7.5 | 1 | 2.1 | 5.6 | –
27 | COC(=O)NC(C(=O)N1CCC[C@H]1c1ncc(-c2ccc(-c3ccc(-c4cnc([C@@H]5CCCN5C(=O)C(NC(=O)OC)C(C)C)[nH]4)cc3)cc2)[nH]1)C(C)C (some centres not stated) | 11.2 | 0.67 | 1 | 13.5 | 0.01
28 | Clc1ccc(COC(Cn2ccnc2)c2ccc(Cl)cc2Cl)c(Cl)c1 (configuration not stated) | 12.6 | 7.14 | 9.48 | 19.8 | 0.08
29 | Fc1ccc([C@@H]2CCNC[C@H]2COc2ccc3c(c2)OCO3)cc1 | 17 | 18 | 18 | 13 | 0.06
30 | COc1ccc2c(c1)[C@@H]1C[C@]1(C(=O)N1[C@@H]3CC[C@H]1CN(C)C3)Cn1c-2c(C2CCCCC2)c2ccc(C(=O)NS(=O)(=O)N(C)C)cc21 | 6.38 | 0.5 | 1.33 | 5.38 | 0.01
31 | COc1cccc2c1C(=N)c1c(O)c3c(c(O)c1C2=O)C[C@@](O)(C(=O)CO)C[C@@H]3O[C@H]1C[C@H](N)[C@H](O)[C@H](C)O1 | 17.2 | 15.4 | 15 | 13.8 | –
32 | Cc1onc(-c2ccccc2)c1C(=O)NC1C(=O)N2C(C(=O)O)C(C)(C)S[C@H]12 (some centres not stated) | 0.5 | 0.19 | 6.3 | 0.7 | 0.07
